Source: ChEMBL document CHEMBL4007415, “Thieno[3,2-b]pyrrole-5-carboxamides as New Reversible Inhibitors of Histone Lysine Demethylase KDM1A/LSD1. Part 1: High-Throughput Screening and Preliminary Exploration” (J Med Chem, 2017)
The source made the active and inactive calls. No cut-off for these calls is given here.

How the values were obtained:
LSD1/CoREST complex [1] = molecular target: T1, LSD1/CoREST complex (Homo sapiens, UniProt O60341)
Description: Inhibition of recombinant human KDM1A/CoREST complex expressed in Escherichia coli using biotinylated H3K4me1 peptide as substrate preincubated for 20 mins measured after 1 hr by TR-FRET assay

THP-1 [2] = test: Induction of cell death in human THP1 cells at 1 uM after 72 hrs by propidium iodide staining based flow cytometry; format: functional
THP-1 [3] = test: Induction of apoptosis in human THP1 cells at 1 uM after 72 hrs by Annexin V-propidium iodide staining based flow cytometry; format: functional, cell-based
[4] = molecular target: T2, Lysine-specific histone demethylase 2 (Homo sapiens, UniProt Q8NB78)
T2 sequence (Q8NB78 whole entry): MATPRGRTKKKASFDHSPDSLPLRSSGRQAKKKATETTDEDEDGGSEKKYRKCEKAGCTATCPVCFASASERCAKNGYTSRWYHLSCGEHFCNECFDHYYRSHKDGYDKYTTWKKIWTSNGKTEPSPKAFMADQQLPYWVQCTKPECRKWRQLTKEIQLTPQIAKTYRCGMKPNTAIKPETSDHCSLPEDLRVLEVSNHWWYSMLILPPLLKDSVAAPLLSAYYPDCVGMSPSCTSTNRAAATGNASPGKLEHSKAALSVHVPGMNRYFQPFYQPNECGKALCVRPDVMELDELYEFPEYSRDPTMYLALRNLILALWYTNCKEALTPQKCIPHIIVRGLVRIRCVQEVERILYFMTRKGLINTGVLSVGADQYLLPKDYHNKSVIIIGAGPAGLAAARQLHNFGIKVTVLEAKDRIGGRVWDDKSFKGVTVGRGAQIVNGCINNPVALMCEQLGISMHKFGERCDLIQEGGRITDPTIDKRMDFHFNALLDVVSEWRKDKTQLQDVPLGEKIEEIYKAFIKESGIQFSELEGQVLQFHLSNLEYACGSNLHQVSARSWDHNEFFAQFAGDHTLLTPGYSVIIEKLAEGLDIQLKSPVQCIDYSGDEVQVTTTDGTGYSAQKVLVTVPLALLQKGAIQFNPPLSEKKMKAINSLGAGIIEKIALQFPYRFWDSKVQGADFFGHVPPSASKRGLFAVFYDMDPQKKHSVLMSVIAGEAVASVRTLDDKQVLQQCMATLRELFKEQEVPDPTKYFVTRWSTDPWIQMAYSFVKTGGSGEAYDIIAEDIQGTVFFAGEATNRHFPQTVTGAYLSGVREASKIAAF
Description: Inhibition of KDM1B (unknown origin)

[5] = molecular target: Lysine-specific histone demethylase 1A (Homo sapiens) (UniProt O60341); test: Inhibition of KDM1A in human THP1 cells assessed as increase in CD11b mRNA expression level at 1 uM after 24 hrs by qRT-PCR analysis relative to control; format: cell-based
[6] = molecular target: Lysine-specific histone demethylase 1A (Homo sapiens) (UniProt O60341); test: Inhibition of KDM1A in human THP1 cells assessed as increase in CD14 mRNA expression level at 1 uM after 24 hrs by qRT-PCR analysis relative to control; format: cell-based
[7] = molecular target: T3, Amine oxidase [flavin-containing] B (Homo sapiens, UniProt P27338)
T3 sequence (P27338 whole entry): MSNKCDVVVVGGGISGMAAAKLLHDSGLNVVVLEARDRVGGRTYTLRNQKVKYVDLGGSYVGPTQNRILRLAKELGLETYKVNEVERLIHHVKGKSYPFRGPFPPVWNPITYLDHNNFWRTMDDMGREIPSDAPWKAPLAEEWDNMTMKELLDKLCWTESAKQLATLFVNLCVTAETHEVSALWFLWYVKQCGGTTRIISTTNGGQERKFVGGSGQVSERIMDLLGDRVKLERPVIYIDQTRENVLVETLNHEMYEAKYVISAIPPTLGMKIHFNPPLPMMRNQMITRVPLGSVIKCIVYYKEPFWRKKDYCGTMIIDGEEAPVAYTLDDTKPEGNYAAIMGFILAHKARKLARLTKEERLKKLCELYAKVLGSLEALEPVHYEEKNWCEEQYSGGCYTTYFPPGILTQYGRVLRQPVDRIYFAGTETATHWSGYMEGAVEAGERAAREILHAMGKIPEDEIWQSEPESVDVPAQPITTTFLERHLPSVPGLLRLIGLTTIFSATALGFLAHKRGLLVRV
Description: Inhibition of recombinant human MAOB incubated for 15 mins measured after 30 mins by luminescence-Glo assay

[8] = molecular target: T4, Amine oxidase [flavin-containing] A (Homo sapiens, UniProt P21397)
T4 sequence (P21397 whole entry): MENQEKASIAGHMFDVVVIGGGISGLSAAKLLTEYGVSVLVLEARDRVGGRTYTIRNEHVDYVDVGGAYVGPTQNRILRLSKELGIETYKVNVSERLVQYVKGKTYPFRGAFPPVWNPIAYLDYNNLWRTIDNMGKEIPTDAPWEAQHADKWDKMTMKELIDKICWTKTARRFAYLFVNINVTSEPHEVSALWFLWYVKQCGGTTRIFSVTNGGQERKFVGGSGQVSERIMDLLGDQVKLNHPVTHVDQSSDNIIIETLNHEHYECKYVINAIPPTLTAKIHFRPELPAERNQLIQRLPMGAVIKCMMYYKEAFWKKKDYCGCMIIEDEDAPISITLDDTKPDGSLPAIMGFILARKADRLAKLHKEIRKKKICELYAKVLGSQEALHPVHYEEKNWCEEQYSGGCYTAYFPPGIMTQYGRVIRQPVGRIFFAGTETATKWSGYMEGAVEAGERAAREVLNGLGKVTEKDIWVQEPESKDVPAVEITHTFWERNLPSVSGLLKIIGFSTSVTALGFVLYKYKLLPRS
Description: Inhibition of recombinant human MAOA incubated for 15 mins measured after 30 mins by luminescence-Glo assay

LSD1/CoREST complex [9] = molecular target: T1, LSD1/CoREST complex; test: Inhibition of recombinant human KDM1A/CoREST complex expressed in Escherichia coli using biotinylated H3K4me1 peptide as substrate preincubated for 10 mins with enzyme followed by substrate addition measured after 1 hr by TR-FRET HTS assay
THP-1 [10] = test: Anticlonogenic activity against human THP1 cells assessed as inhibition of colony formation at 0.5 uM after 13 days relative to control; format: functional; conditions: THP-1, 312 h
THP-1 [11] = test: Induction of cell death in human THP1 cells at 0.5 uM after 72 hrs by propidium iodide staining based flow cytometry; format: functional
THP-1 [12] = test: Induction of apoptosis in human THP1 cells at 0.5 uM after 72 hrs by Annexin V-propidium iodide staining based flow cytometry; format: functional, cell-based
LSD1/CoREST complex [13] = molecular target: T1, LSD1/CoREST complex; remark: listed apart in the source
Description: Inhibition of recombinant human KDM1A/CoREST complex expressed in Escherichia coli using H3K4me1 peptide as substrate preincubated for 15 mins with enzyme followed by substrate addition measured after 12 mins by Amplex Ultra Red reagent based HRP enzyme coupled assay

LSD1/CoREST complex [14] = molecular target: T1, LSD1/CoREST complex; test: Competitive inhibition of recombinant human KDM1A/CoREST complex expressed in Escherichia coli using H3K4me1 peptide as substrate preincubated for 15 mins followed by substrate addition measured for 12 mins by Lineweaver-Burk plot analysis
[15] = molecular target: Lysine-specific histone demethylase 1A (Homo sapiens) (UniProt O60341); test: Inhibition of KDM1A in human THP1 cells assessed as increase in CD86 mRNA expression level at 5 uM after 24 hrs by qRT-PCR analysis relative to control; format: cell-based
THP-1 [16] = test: Anticlonogenic activity against human THP1 cells assessed as inhibition of colony formation at 5 uM after 13 days relative to control; format: functional; conditions: THP-1, 312 h
[17] = tested on: CC(=O)c1ccc(CN2CCC3(CCNCC3)C2)cc1; conditions: Homo sapiens
Description: Inhibition of recombinant human KDM1A/CoREST complex expressed in Escherichia coli assessed as Km for substrate using H3K4me1 peptide as substrate preincubated for 15 mins followed by substrate addition measured for 12 mins by Lineweaver-Burk plot analysis

| Compound | IC50 (LSD1/CoREST complex [1]) [µM] | further results |
| --- | --- | --- |
| Cn1c(C(=O)Nc2ccccc2)c(Cl)c2sccc21 | > 100 | – |
| Cn1c(C(=O)Nc2cccc(Br)c2)cc2sccc21 | > 100 | – |
| Cn1cnc2c1cc(C(=O)Nc1ccccc1)n2C | > 100 | – |
| CN1CCC(Oc2ccc(OCc3cccc(NC(=O)c4cc5sccc5n4C)c3)cc2)CC1 | 0.44 to 0.442 | Activity (THP-1 [2]): inactive; Activity (THP-1 [3]): inactive; IC50 [4]: > 100 µM; fold change (FC) [5]: 4.76; fold change (FC) [6]: 2.76; IC50 [7]: 7.6 µM; IC50 [8]: > 100 µM |
| COc1cccc(NC(=O)c2cc3sccc3n2C)c1 | 26.5 | – |
| Cn1c(C(=O)Nc2ccccc2)cc2occc21 | 89.5 | – |
| O=C(Nc1ccccc1)c1cc2sccc2n1S(=O)(=O)c1ccccc1 | > 100 | – |
| Cn1cnc2[nH]c(C(=O)Nc3ccccc3)cc21 | > 100 | – |
| O=C(Nc1ccccc1)c1cc2sccc2n1-c1ccccc1 | > 100 | – |
| Cn1c(C(=O)Nc2ccncn2)cc2sccc21 | > 100 | – |
| Cn1c(C(=O)Nc2ccccn2)cc2sccc21 | > 100 | – |
| CN(C)Cc1cccc(NC(=O)c2cc3sccc3n2C)c1 | 16.7 | – |
| COCc1c(C(=O)Nc2ccccc2)n(C)c2ccsc12 | > 100 | – |
| Cc1oc(-c2ccc(Cl)cc2[N+](=O)[O-])cc1C(=O)Nc1ccccc1 | – | IC50 (LSD1/CoREST complex [9]): 3.5 µM |
| Cn1c(C(=O)Nc2ccccc2)c(I)c2sc(I)cc21 | > 100 | – |
| CN1CCC(COc2cccc(NC(=O)c3cc4sccc4n3C)c2)CC1 | 2.2 | – |
| Cn1c(C(=O)Nc2ccccc2)cc2ccsc21 | 38.8 | – |
| COCc1cccc(NC(=O)c2cc3sccc3n2C)c1 | – | IC50 [4]: > 100 µM; IC50 [7]: 56.8 µM; IC50 [8]: > 100 µM |
| NC1CCC(N[C@@H]2C[C@H]2c2ccccc2)CC1 (stereo partly drawn) | – | inhibition at 0.5 µM (THP-1 [10]): 70%; IC50 [4]: 43.4 µM; IC50 [8]: 48.3 µM; Activity (THP-1 [11]): inactive; Activity (THP-1 [12]): inactive |
| CSCc1cccc(NC(=O)c2cc3sccc3n2C)c1 | 7.4 | – |
| CCn1c(C(=O)Nc2ccccc2)cc2sccc21 | 9.3 | – |

| Compound | IC50 (LSD1/CoREST complex [1]) [µM] | further results |
| --- | --- | --- |
| Cn1c(C(=O)Nc2ccccc2)cc2sc(Br)cc21 | > 100 | – |
| Cn1c(C(=O)Nc2cccc(Cl)c2)cc2sccc21 | 18.7 | – |
| CN1CCN(c2cccc(NC(=O)c3cc4sccc4n3C)c2)CC1 | 21.5 | – |
| CC(=O)c1ccc(CN2CCC3(CCNCC3)C2)cc1 | 8.1 | IC50 (LSD1/CoREST complex [13]): 82.4 µM; Ki (LSD1/CoREST complex [14]): 48.4 µM; IC50 [7]: 42.5 µM; IC50 (LSD1/CoREST complex [9]): 5 µM; IC50 [8]: > 100 µM |
| Cc1c(C(=O)Nc2ccccc2)n(C)c2ccsc12 | > 100 | – |
| CCCn1c(C(=O)Nc2ccccc2)cc2sccc21 | 53.2 | – |
| Cn1c(C(=O)Nc2cccnc2)cc2sccc21 | 61.5 | – |
| Cn1c(C(=O)Nc2cccc(OCc3ccncc3)c2)cc2sccc21 | 7.2 | – |
| Cn1c(C(=O)Nc2ccccc2)cc2scnc21 | > 100 | – |
| Cn1c(C(=O)Nc2cccc(CN3CCOCC3)c2)cc2sccc21 | 11.1 | – |
| Cn1ncc2cc(C(=O)Nc3ccccc3)n(C)c21 | > 100 | – |
| Cn1ccc2c1cc(C(=O)Nc1ccccc1)n2C | > 100 | – |
| Cc1cc2c(cc(C(=O)Nc3ccccc3)n2C)s1 | > 100 | – |
| CN(C)Cc1cc2c(cc(C(=O)Nc3ccccc3)n2C)s1 | > 100 | – |
| O=C(Nc1ccccc1)c1cc2sccc2[nH]1 | > 100 | – |
| Cn1c(C(=O)Nc2ccccc2)cc2ncsc21 | > 100 | – |
| Cn1c(C(=O)Nc2cccc(COc3ccc(OC4CCNCC4)cc3)c2)cc2sccc21 | 0.16 to 0.162 | Activity (THP-1 [2]): inactive; fold change (FC) [15]: 14.3; Activity (THP-1 [3]): inactive; inhibition at 5 µM (THP-1 [16]): 29.5%; IC50 [4]: > 100 µM; fold change (FC) [5]: 4.61; fold change (FC) [6]: 4.79; IC50 [7]: 7.16 µM; IC50 [8]: > 100 µM |
| Cn1c(C(=O)Nc2cccc(COc3ccccc3)c2)cc2sccc21 | > 100 | – |
| Cn1c(C(=O)Nc2cccc(COc3ccc(O)cc3)c2)cc2sccc21 | 25.2 | – |
| Cc1csc2cc(C(=O)Nc3ccccc3)n(C)c12 | > 100 | – |
| Cn1c(C(=O)Nc2cccc(C(N)=O)c2)cc2sccc21 | 97.3 | – |

| Compound | IC50 (LSD1/CoREST complex [1]) [µM] | further results |
| --- | --- | --- |
| Cn1c(C(=O)Nc2ccccc2)cc2sc(I)cc21 | > 100 | – |
| NCCn1c(C(=O)Nc2ccccc2)cc2sccc21 | 48.1 | – |
| Cn1c(C(=O)Nc2ncccn2)cc2sccc21 | > 100 | – |
| CN(C)Cc1c(C(=O)Nc2ccccc2)n(C)c2ccsc12 | > 100 | – |
| O=C(Nc1ccccc1)c1ccc2sccc2c1 | > 100 | – |
| Cn1c(C(=O)Nc2ccccc2)cc2sccc21 | 25.7 | – |
| Cn1c(C(=O)Nc2cccc(COc3ccncc3)c2)cc2sccc21 | 9.4 | – |
| Cc1nc(-n2nc(-c3cccs3)cc2NC(=O)COc2ccccc2F)[nH]c(=O)c1C | – | IC50 (LSD1/CoREST complex [9]): 0.76 µM |
| Cn1c(C(=O)Nc2ccccc2)cc2sc(F)cc21 | > 100 | – |
| O=C(Nc1ccccc1)c1cc2sccc2s1 | > 100 | – |
| CN(C)c1cccc(NC(=O)c2cc3sccc3n2C)c1 | 29.6 | – |
| Cn1c(C(=O)Nc2cccc(F)c2)cc2sccc21 | 22.2 | – |
| LSD1/CoREST complex (Homo sapiens) (from UniProt O60341+Q9UKL0) | – | Km [17]: 1.4 µM |
| Cn1c(C(=O)Nc2ccncc2)cc2sccc21 | > 100 | – |
| Cn1c(C(=O)Nc2ccccc2)nc2sccc21 | > 100 | – |
| Cn1c(C(=O)Nc2ccccc2)c(I)c2sccc21 | > 100 | – |
| Cn1c(C(=O)Nc2cccc(CO)c2)cc2sccc21 | 52.3 | – |
| Cn1c(C(=O)Nc2cccc(Oc3ccncc3)c2)cc2sccc21 | 89.9 | – |
| Cc1sc2cc(C(=O)Nc3ccccc3)n(C)c2c1C | > 100 | – |
